Source: the supplement of paper PMC10627819

Experiments:
S. pneumoniae D39V = test: fitness (endpoint OD595 vs no drug) (fraction); higher = more growth
In short: (§1)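 At 37 °C, bacteria in TSB, LB Lennox or CY were grown in 384-well plates from a starting OD595 of 0.01. OD595 was measured every 30 min for 14 h, with the first reading used as background. Fitness is the optical density at the switch to stationary phase as a fraction of the robust mean of no-drug control wells, capped at 1.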

S. aureus DSM 20231 = test: as above
In short: as §1
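Note: OD595 on entry to stationary phase over no-drug wells; at most 1.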

## CC1(C)S[C@@H]2[C@H](NC(=O)[C@H](N)c3ccc(O)cc3)C(=O)N2[C@H]1C(=O)O [Amoxicillin] + CN(C)[C@@H]1C(O)=C(C(N)=O)C(=O)[C@@]2(O)C(O)=C3C(=O)c4c(O)ccc(Cl)c4[C@@](C)(O)[C@H]3C[C@@H]12 [Chlortetracycline]
S. pneumoniae D39V; first compound 0.0008 µg/mL, partner 0.012 µg/mL, one replicate
  fitness: 0.904
S. pneumoniae D39V; first compound 0.0008 µg/mL, partner 0.024 µg/mL, one replicate
  fitness: 0.844
S. pneumoniae D39V; first compound 0.0008 µg/mL, partner 0.048 µg/mL, one replicate
  fitness: 0.853
S. pneumoniae D39V; first compound 0.0008 µg/mL, partner 0.375 µg/mL
  fitness: 0.0877
S. pneumoniae D39V; first compound 0.0008 µg/mL, partner 0.75 µg/mL
  fitness: 0.0924
S. pneumoniae D39V; first compound 0.0008 µg/mL, partner 1.5 µg/mL
  fitness: 0.0983
S. pneumoniae D39V; first compound 0.0015 µg/mL, partner 0.012 µg/mL
  fitness: 0.845
S. pneumoniae D39V; first compound 0.0015 µg/mL, partner 0.024 µg/mL
  fitness: 0.854
S. pneumoniae D39V; first compound 0.0015 µg/mL, partner 0.048 µg/mL
  fitness: 0.887
S. pneumoniae D39V; first compound 0.0015 µg/mL, partner 0.375 µg/mL
  fitness: 0.119
S. pneumoniae D39V; first compound 0.0015 µg/mL, partner 0.75 µg/mL
  fitness: 0.0947
S. pneumoniae D39V; first compound 0.0015 µg/mL, partner 1.5 µg/mL
  fitness: 0.123
S. pneumoniae D39V; first compound 0.003 µg/mL, partner 0.012 µg/mL
  fitness: 0.808
S. pneumoniae D39V; first compound 0.003 µg/mL, partner 0.024 µg/mL
  fitness: 0.804
S. pneumoniae D39V; first compound 0.003 µg/mL, partner 0.048 µg/mL
  fitness: 0.85
S. pneumoniae D39V; first compound 0.003 µg/mL, partner 0.375 µg/mL
  fitness: 0.0652
S. pneumoniae D39V; first compound 0.003 µg/mL, partner 0.75 µg/mL
  fitness: 0.045
S. pneumoniae D39V; first compound 0.003 µg/mL, partner 1.5 µg/mL
  fitness: 0.0882
S. pneumoniae D39V; first compound 0.006 µg/mL, partner 0.012 µg/mL, one replicate
  fitness: 0.482
S. pneumoniae D39V; first compound 0.006 µg/mL, partner 0.024 µg/mL, one replicate
  fitness: 0.45
S. pneumoniae D39V; first compound 0.006 µg/mL, partner 0.048 µg/mL, one replicate
  fitness: 0.378
S. aureus DSM 20231; first compound 0.0625 µg/mL, partner 0.012 µg/mL
  fitness: 0.421
S. aureus DSM 20231; first compound 0.0625 µg/mL, partner 0.024 µg/mL
  fitness: 0.169
S. aureus DSM 20231; first compound 0.0625 µg/mL, partner 0.048 µg/mL
  fitness: 0.0806
S. aureus DSM 20231; first compound 0.125 µg/mL, partner 0.006 µg/mL, one replicate
  fitness: 0.402
S. aureus DSM 20231; first compound 0.125 µg/mL, partner 0.012 µg/mL
  fitness: 0.236
S. aureus DSM 20231; first compound 0.125 µg/mL, partner 0.024 µg/mL
  fitness: 0.127
S. aureus DSM 20231; first compound 0.125 µg/mL, partner 0.048 µg/mL
  fitness: 0.0782
S. aureus DSM 20231; first compound 0.25 µg/mL, partner 0.006 µg/mL, one replicate
  fitness: 0.052
S. aureus DSM 20231; first compound 0.25 µg/mL, partner 0.012 µg/mL
  fitness: 0.0422
S. aureus DSM 20231; first compound 0.25 µg/mL, partner 0.024 µg/mL
  fitness: 0.0199
S. aureus DSM 20231; first compound 0.25 µg/mL, partner 0.048 µg/mL
  fitness: 0.0289
S. aureus DSM 20231; first compound 0.5 µg/mL, partner 0.006 µg/mL, one replicate
  fitness: 0
S. aureus DSM 20231; first compound 0.5 µg/mL, partner 0.012 µg/mL
  fitness: 0.0037
S. aureus DSM 20231; first compound 0.5 µg/mL, partner 0.024 µg/mL
  fitness: 0.0085
S. aureus DSM 20231; first compound 0.5 µg/mL, partner 0.048 µg/mL
  fitness: 0.0227

## CN(C)C(=O)C(CCN1CCC(O)(c2ccc(Cl)cc2)CC1)(c1ccccc1)c1ccccc1 [Loperamide] + CO[C@@]12[C@H](COC(N)=O)C3=C(C(=O)C(C)=C(N)C3=O)N1C[C@@H]1N[C@@H]12 [Mitomycin C]
S. pneumoniae D39V; first compound 17.14 µg/mL, partner 0.002 µg/mL
  fitness: 0.871
S. pneumoniae D39V; first compound 17.14 µg/mL, partner 0.004 µg/mL
  fitness: 0.796
S. pneumoniae D39V; first compound 17.14 µg/mL, partner 0.008 µg/mL
  fitness: 0.662
S. pneumoniae D39V; first compound 20 µg/mL, partner 0.001075 µg/mL
  fitness: ≥ 1
S. pneumoniae D39V; first compound 20 µg/mL, partner 0.00215 µg/mL
  fitness: ≥ 1
S. pneumoniae D39V; first compound 20 µg/mL, partner 0.0043 µg/mL
  fitness: 0.926
S. pneumoniae D39V; first compound 34.28 µg/mL, partner 0.002 µg/mL
  fitness: 0.843
S. pneumoniae D39V; first compound 34.28 µg/mL, partner 0.004 µg/mL
  fitness: 0.8
S. pneumoniae D39V; first compound 34.28 µg/mL, partner 0.008 µg/mL
  fitness: 0.616
S. pneumoniae D39V; first compound 40 µg/mL, partner 0.001075 µg/mL
  fitness: ≥ 1
S. pneumoniae D39V; first compound 40 µg/mL, partner 0.00215 µg/mL
  fitness: ≥ 1
S. pneumoniae D39V; first compound 40 µg/mL, partner 0.0043 µg/mL
  fitness: 0.953
S. pneumoniae D39V; first compound 68.57 µg/mL, partner 0.002 µg/mL, one replicate
  fitness: 0.814
S. pneumoniae D39V; first compound 68.57 µg/mL, partner 0.004 µg/mL, one replicate
  fitness: 0.712
S. pneumoniae D39V; first compound 68.57 µg/mL, partner 0.008 µg/mL, one replicate
  fitness: 0.672
S. pneumoniae D39V; first compound 80 µg/mL, partner 0.001075 µg/mL
  fitness: 0.804
S. pneumoniae D39V; first compound 80 µg/mL, partner 0.00215 µg/mL
  fitness: 0.801
